The results in this text go back to patent US20250332173A1, “COMPOUNDS AND METHODS FOR MODULATING NUCLEIC ACID SPLICING” (REMIX THERAPEUTICS INC., priority 2021, published 2025).

Where two headings read alike, the source gives them in different places.

Test [1] deals with HTT mRNA. The experiment in a line: RT-qPCR splicing assay, HTT canonical junction (CJ) and alternative junction (AJ) mRNA. The test is classed as cell-based, human. The following applies: Homo sapiens; for AC50: increase in HTT alternative junction (AJ) mRNA, read-out: HTT AJ AC50. Put shortly:
(§1)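 Read-out is one-step RT-qPCR on cell lysates detecting the exon-exon junction of each isoform, normalized to a housekeeping gene (PPIA in A673, GAPDH or GUSB in K562).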

The subject of test [2] is MYB mRNA. The experiment in a line: RT-qPCR splicing assay, MYB canonical junction (CJ) and alternative junction (AJ) mRNA. The test is classed as cell-based, human. The following applies: Homo sapiens; for AC50: increase in MYB alternative junction (AJ) mRNA, read-out: MYB AJ AC50. Put shortly: as §1
The mark [3] stands for this setting: decrease in HTT canonical junction (CJ) mRNA, RT-qPCR, read-out: HTT CJ IC50.
Where [4] appears, read: Table 5 panel, canonical junction qPCR, compound concentration having 50% response in CJ decrease, read-out: HTT IC50 (decrease in CJ mRNA levels).
Setting [5] is: Table 5 panel, canonical junction qPCR, compound concentration having 50% response in CJ decrease, read-out: MYB IC50 (decrease in CJ mRNA levels).
Setting [6] is: decrease in MYB canonical junction (CJ) mRNA, RT-qPCR, read-out: MYB CJ IC50.

Regarding `Cc1cn2cc(-c3cc(F)c4c(=O)n([C@@H]5CCNC5)ccc4c3)cc(F)c2n1` (single isomer, unassigned) [Compound 395], the IC50 – broadly, the concentration that gives 50% inhibition – was 1000 to 10000 nM in test [1] (setting [3]), 1000 to 10000 nM in test [1] (setting [4]), under 100 nM in test [2] (setting [5]) and 100 to 1000 nM in test [2] (setting [6]). Also, the AC50 (in general, the concentration at which the activity in the assay is half-maximal) was 1000 to 10000 nM in test [1] (RT-qPCR) and under 100 nM in test [2] (RT-qPCR).
With `Cc1cn2cc(-c3cc(F)c4c(=O)n([C@H]5CCNC5)ccc4c3)cc(F)c2n1` (single isomer, unassigned) [Compound 396], the IC50 is 1000 to 10000 nM in test [1] (setting [3]), 1000 to 10000 nM in test [1] (setting [4]), under 100 nM in test [2] (setting [5]) and under 100 nM in test [2] (setting [6]). The AC50 in test [1] (RT-qPCR) is 1000 to 10000 nM; in test [2] (RT-qPCR) it was under 100 nM.
With `Cc1cn2cc(-c3ccc4c(=O)n([C@@H]5CCCNC5)ccc4c3)cc(F)c2n1` (single isomer, unassigned) [Compound 403], the half-maximal inhibitory concentration (IC50) in test [1] (setting [3]) is 1000 to 10000 nM; in test [1] (setting [4]), 1000 to 10000 nM; in test [2] (setting [5]), 1000 to 10000 nM; in test [2] (setting [6]), 100 to 1000 nM. For the same compound, the AC50 in test [1] (RT-qPCR) and in test [2] (RT-qPCR) was 1000 to 10000 nM each time.
`Cc1cn2nc(-c3cc(F)c4c(=O)n([C@@H]5CCNC6(CC6)C5)ccc4c3)cc(C)c2n1` (single isomer, unassigned) [Compound 425]: the IC50 in test [1] (setting [3]), in test [1] (setting [4]), in test [2] (setting [5]) and in test [2] (setting [6]) was under 100 nM each time. Besides, the AC50 in test [1] (RT-qPCR) and in test [2] (RT-qPCR) was under 100 nM in each case.
In the case of `Cc1cn2nc(-c3cc(F)c4c(=O)n([C@H]5CCNC6(CC6)C5)ccc4c3)cc(C)c2n1` (single isomer, unassigned) [Compound 426], the IC50 in test [1] (setting [3]), in test [1] (setting [4]), in test [2] (setting [5]) and in test [2] (setting [6]) was under 100 nM throughout. The AC50 in test [1] (RT-qPCR) and in test [2] (RT-qPCR) was under 100 nM throughout.
Consider `Cc1cn2nc(-c3ccc4c(=O)n([C@@H]5CCNC6(CC6)C5)ncc4c3)cc(C)c2n1` (stereo in doubt) [Compound 368, 2-[(7R)-4-azaspiro[2.5]octan-7-yl]-6-{2,8-dimethylimidazo[1,2-b]pyridazin-6-yl}phthalazin-1-one], for which the IC50 in test [1] (setting [3]) was under 100 nM; in test [1] (setting [4]), under 100 nM; in test [2] (setting [5]) it was 100 to 1000 nM; in test [2] (setting [6]) it was 100 to 1000 nM. Moreover, the AC50 in test [1] (RT-qPCR) is under 100 nM; in test [2] (RT-qPCR), 100 to 1000 nM.
Turning to `Cc1cn2nc(-c3cc(F)c4c(=O)n(C5CCNC5)ccc4c3)cc(C)c2n1` (stereo in doubt) [Compound 382, (R)-6-(2,8-dimethylimidazo[1,2-b]pyridazin-6-yl)-8-fluoro-2-(pyrrolidin-3-yl)isoquinolin-1(2H)-one], the IC50 is 1000 to 10000 nM in test [1] (setting [3]), 1000 to 10000 nM in test [1] (setting [4]), under 100 nM in test [2] (setting [5]) and 100 to 1000 nM in test [2] (setting [6]). The results for the AC50 in test [1] (RT-qPCR) and in test [2] (RT-qPCR) were 1000 to 10000 nM and under 100 nM, respectively.
As to `Cc1cn2nc(-c3cc(F)c4c(=O)n(C5CCNC5)ccc4c3)cc(C)c2n1` (stereo in doubt) [Compound 392, (S)-6-(2,8-dimethylimidazo[1,2-b]pyridazin-6-yl)-8-fluoro-2-(pyrrolidin-3-yl)isoquinolin-1(2H)-one], the IC50 in test [1] (setting [3]) is 1000 to 10000 nM; in test [1] (setting [4]), 1000 to 10000 nM; in test [2] (setting [5]), under 100 nM; in test [2] (setting [6]), under 100 nM. For the same compound, the concentration at half-maximal activity (AC50) was 1000 to 10000 nM in test [1] (RT-qPCR) and under 100 nM in test [2] (RT-qPCR).
`Cc1cn2nc(-c3cc(C)c4c(=O)n(C5CCNC6(CC6)C5)ccc4c3)cc(C)c2n1` (stereo in doubt) [Compound 397, (S)-6-(2,8-dimethylimidazo[1,2-b]pyridazin-6-yl)-8-methyl-2-(4-azaspiro[2.5]octan-7-yl)isoquinolin-1(2H)-one]: the IC50 was under 100 nM in test [1] (setting [3]), under 100 nM in test [1] (setting [4]), 100 to 1000 nM in test [2] (setting [5]) and under 100 nM in test [2] (setting [6]). Further, the AC50 in test [1] (RT-qPCR) is under 100 nM; in test [2] (RT-qPCR), 100 to 1000 nM.
In the case of `Cc1cn2nc(-c3cc(C)c4c(=O)n(C5CCNC6(CC6)C5)ccc4c3)cc(C)c2n1` (stereo in doubt) [Compound 398, (R)-6-(2,8-dimethylimidazo[1,2-b]pyridazin-6-yl)-8-methyl-2-(4-azaspiro[2.5]octan-7-yl)isoquinolin-1(2H)-one], the IC50 in test [1] (setting [3]), in test [1] (setting [4]), in test [2] (setting [5]) and in test [2] (setting [6]) was under 100 nM throughout. Also, the AC50 in test [1] (RT-qPCR) and in test [2] (RT-qPCR) was under 100 nM throughout.
With `Cc1cn2nc(-c3ccc4c(=O)n(C5CCCNC5)ccc4c3)cc(C)c2n1` (stereo in doubt) [Compound 410, 6-{2,8-dimethylimidazo[1,2-b]pyridazin-6-yl}-2-[(3S)-piperidin-3-yl]isoquinolin-1-one], the IC50 was 1000 to 10000 nM in test [1] (setting [3]), 1000 to 10000 nM in test [1] (setting [4]), 100 to 1000 nM in test [2] (setting [5]) and 100 to 1000 nM in test [2] (setting [6]). The values for the AC50 in test [1] (RT-qPCR) and in test [2] (RT-qPCR) were 1000 to 10000 nM and 100 to 1000 nM, respectively.
For the compound `Cc1cn2nc(-c3ccc4c(=O)n(C5CCCNC5)ccc4c3)cc(C)c2n1` (stereo in doubt) [Compound 411, 6-{2,8-dimethylimidazo[1,2-b]pyridazin-6-yl}-2-[(3R)-piperidin-3-yl]isoquinolin-1-one], the 50% inhibitory concentration (IC50) in test [1] (setting [3]), in test [1] (setting [4]), in test [2] (setting [5]) and in test [2] (setting [6]) was 1000 to 10000 nM throughout. For the same compound, the AC50 in test [1] (RT-qPCR) and in test [2] (RT-qPCR) was 1000 to 10000 nM in each case.
For `Cc1cn2cc(-c3cc(F)c4c(=O)n(C5CCOC5)cnc4c3)cc(C#N)c2n1` (stereo in doubt) [Compound 499, (R)-6-(5-fluoro-4-oxo-3-(tetrahydrofuran-3-yl)-3,4-dihydroquinazolin-7-yl)-2-methylimidazo[1,2-a]pyridine-8-carbonitrile], the IC50 in test [1] (setting [3]), in test [1] (setting [4]), in test [2] (setting [5]) and in test [2] (setting [6]) was 100 to 1000 nM throughout. Also, the AC50 in test [1] (RT-qPCR) and in test [2] (RT-qPCR) was 100 to 1000 nM throughout.
Regarding `Cc1cn2cc(-c3cc(F)c4c(=O)n(C5CCOC5)cnc4c3)cc(C#N)c2n1` (stereo in doubt) [Compound 500, (S)-6-(5-fluoro-4-oxo-3-(tetrahydrofuran-3-yl)-3,4-dihydroquinazolin-7-yl)-2-methylimidazo[1,2-a]pyridine-8-carbonitrile], the IC50 in test [1] (setting [3]), in test [1] (setting [4]), in test [2] (setting [5]) and in test [2] (setting [6]) was 100 to 1000 nM each time. Besides, the AC50 in test [1] (RT-qPCR) and in test [2] (RT-qPCR) was 100 to 1000 nM each time.
Turning to `Cn1cc2cc(-n3cnc4cc(C5=CC6CCC(C5)N6)ccc4c3=O)ccc2n1` (stereo not drawn) [Compound 160], the IC50 in test [1] (setting [3]), in test [1] (setting [4]), in test [2] (setting [5]) and in test [2] (setting [6]) was over 10000 nM in each case. Also, the AC50 in test [1] (RT-qPCR) and in test [2] (RT-qPCR) was over 10000 nM throughout.
Turning to `CN1C2C=C(c3ccc4c(=O)n(-c5ccc6nn(C)cc6c5)cnc4c3)CC1CC2` (stereo not drawn) [Compound 161], the IC50 in test [1] (setting [3]), in test [1] (setting [4]), in test [2] (setting [5]) and in test [2] (setting [6]) was over 10000 nM each time. The AC50 in test [1] (RT-qPCR) and in test [2] (RT-qPCR) was over 10000 nM each time.
`Cn1cc2cc(-n3cnc4cc(NC5CCNCC5)ccc4c3=O)ccc2n1` [Compound 162]: the IC50 in test [1] (setting [3]), in test [1] (setting [4]), in test [2] (setting [5]) and in test [2] (setting [6]) was over 10000 nM each time. The AC50 in test [1] (RT-qPCR) and in test [2] (RT-qPCR) was over 10000 nM each time.
On to `CN1CCC(Nc2ccc3c(=O)n(-c4ccc5nn(C)cc5c4)cnc3c2)CC1` [Compound 163], for which the IC50 is over 10000 nM in test [1] (setting [3]), over 10000 nM in test [1] (setting [4]), 1000 to 10000 nM in test [2] (setting [5]) and over 10000 nM in test [2] (setting [6]). Also, the AC50 in test [1] (RT-qPCR) is over 10000 nM; in test [2] (RT-qPCR), 1000 to 10000 nM.
Turning to `Cn1cc2cc(-n3cnc4cc(C5CCNCC5)ccc4c3=O)ccc2n1` [Compound 172], the IC50 in test [1] (setting [3]), in test [1] (setting [4]), in test [2] (setting [5]) and in test [2] (setting [6]) was over 10000 nM in each case. The AC50 in test [1] (RT-qPCR) and in test [2] (RT-qPCR) was over 10000 nM throughout.
Regarding `Cc1cc(-c2ccc3c(=O)n(C4CCN(C)CC4)cnc3n2)cc2cn(C)nc12` [Compound 173], the IC50 in test [1] (setting [3]), in test [1] (setting [4]), in test [2] (setting [5]) and in test [2] (setting [6]) was over 10000 nM throughout. Moreover, the AC50 in test [1] (RT-qPCR) and in test [2] (RT-qPCR) was over 10000 nM throughout.
Consider `Cc1cc(-c2ccc3c(=O)n(C4CCNCC4)cnc3c2)cc2cn(C)nc12` [Compound 174], for which the concentration for half-maximal inhibition (IC50) in test [1] (setting [3]), in test [1] (setting [4]), in test [2] (setting [5]) and in test [2] (setting [6]) was 100 to 1000 nM each time. Besides, the AC50 in test [1] (RT-qPCR) and in test [2] (RT-qPCR) was 100 to 1000 nM in each case.
For `Cc1cn2cc(-c3cc(N)c4c(=O)n(C5CCNCC5)cnc4c3)cc(C#N)c2n1` [Compound 364, 6-[5-amino-4-oxo-3-(piperidin-4-yl)quinazolin-7-yl]-2-methylimidazo[1,2-a]pyridine-8-carbonitrile], the IC50 in test [1] (setting [3]), in test [1] (setting [4]), in test [2] (setting [5]) and in test [2] (setting [6]) was over 10000 nM in each case. Further, the AC50 in test [1] (RT-qPCR) and in test [2] (RT-qPCR) was over 10000 nM throughout.
